Counter-ions that a name gives are not always drawn.

Among the data in patent US11780830B2, “Triazolone derivatives or salts thereof and pharmaceutical compositions comprising the same” (YUHAN CORPORATION, priority 2018, dated 2023) are IC50 values, retold here.

Common to all, as to format: biochemical
In assay [1] the target is T1, recombinant human DAO (diamine oxidase) (Homo sapiens, UniProt P19801).
T1 construct: purchased R&D systems
T1 sequence (P19801 20-751): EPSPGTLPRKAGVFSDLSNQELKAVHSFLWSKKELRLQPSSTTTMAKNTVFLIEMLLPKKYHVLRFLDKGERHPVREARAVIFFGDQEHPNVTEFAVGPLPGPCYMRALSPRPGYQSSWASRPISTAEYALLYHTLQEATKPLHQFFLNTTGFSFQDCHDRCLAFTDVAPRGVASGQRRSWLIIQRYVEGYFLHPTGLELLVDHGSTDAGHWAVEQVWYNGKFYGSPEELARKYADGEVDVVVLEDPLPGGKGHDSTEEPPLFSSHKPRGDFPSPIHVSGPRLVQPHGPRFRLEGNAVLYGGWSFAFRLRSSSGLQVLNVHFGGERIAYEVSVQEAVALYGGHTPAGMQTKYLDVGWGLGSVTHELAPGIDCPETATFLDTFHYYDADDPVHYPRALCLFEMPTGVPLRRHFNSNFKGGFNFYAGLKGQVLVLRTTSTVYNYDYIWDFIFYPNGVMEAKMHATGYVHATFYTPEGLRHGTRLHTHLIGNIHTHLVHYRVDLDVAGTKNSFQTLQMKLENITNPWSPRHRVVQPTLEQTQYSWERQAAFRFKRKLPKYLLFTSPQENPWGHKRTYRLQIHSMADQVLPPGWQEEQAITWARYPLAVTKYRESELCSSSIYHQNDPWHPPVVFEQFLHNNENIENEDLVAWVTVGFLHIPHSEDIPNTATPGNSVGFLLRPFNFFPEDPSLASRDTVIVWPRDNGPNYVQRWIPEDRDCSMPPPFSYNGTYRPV
Kind of assay: Activity on recombinant human DAO, method similar to the VAP-1 assay. To be noted: substrate 1 mM putrescine; read-out: Inhibitory Activity (IC50, nM) DAO. In a few lines: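 Inhibition of recombinant human diamine oxidase (DAO, R&D systems) was assessed by the same approach as the VAP-1 assay, using 1 mM putrescine as substrate. Hydrogen peroxide formed was detected through an HRP-coupled Amplex Red reaction yielding fluorescent resorufin, read at 544 nm excitation and 590 nm emission. IC50 values came from four-parameter logistic fitting in GraphPad Prism.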

Assay [2] has as its target T2, recombinant human MAO-B (monoamine oxidase-B) (Homo sapiens, UniProt P27338).
T2 construct: purchased Sigma-Aldrich
T2 sequence (P27338 1-520): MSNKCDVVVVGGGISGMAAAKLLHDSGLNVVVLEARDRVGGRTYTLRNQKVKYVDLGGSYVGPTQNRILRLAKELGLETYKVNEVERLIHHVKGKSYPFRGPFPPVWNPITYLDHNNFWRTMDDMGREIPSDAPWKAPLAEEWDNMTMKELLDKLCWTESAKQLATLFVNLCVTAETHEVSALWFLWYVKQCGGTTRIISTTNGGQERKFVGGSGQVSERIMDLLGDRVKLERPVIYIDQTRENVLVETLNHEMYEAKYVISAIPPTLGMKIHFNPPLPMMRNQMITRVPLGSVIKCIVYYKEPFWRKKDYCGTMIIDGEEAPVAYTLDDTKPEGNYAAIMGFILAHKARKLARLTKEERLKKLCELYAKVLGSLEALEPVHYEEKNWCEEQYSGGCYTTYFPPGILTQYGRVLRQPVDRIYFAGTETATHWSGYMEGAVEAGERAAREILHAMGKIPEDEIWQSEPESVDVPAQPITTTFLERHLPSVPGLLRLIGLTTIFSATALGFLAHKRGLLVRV
Kind of assay: Activity on recombinant human MAO-B, method similar to the VAP-1 assay. The settings on record: substrate 1 mM benzylamine; read-out: Inhibitory Activity (IC50, nM) MAO-B. In a few lines:
(§1)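 Enzyme preincubated with compound 30 min at 37 °C in 50 mM sodium phosphate pH 7.4, final DMSO below 1%. Substrate was 0.5 mM tyramine for MAO-A and 1 mM benzylamine for MAO-B, with 200 uM Amplex Red and 1 U/mL HRP. H2O2-coupled resorufin fluorescence (ex 544/em 590) followed over 1–2 h; 8-point 4-parameter IC50.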

The target of assay [3] is T3, recombinant human MAO-A (monoamine oxidase-A) (Homo sapiens, UniProt P21397).
T3 construct: purchased Sigma-Aldrich
T3 sequence (P21397 1-527): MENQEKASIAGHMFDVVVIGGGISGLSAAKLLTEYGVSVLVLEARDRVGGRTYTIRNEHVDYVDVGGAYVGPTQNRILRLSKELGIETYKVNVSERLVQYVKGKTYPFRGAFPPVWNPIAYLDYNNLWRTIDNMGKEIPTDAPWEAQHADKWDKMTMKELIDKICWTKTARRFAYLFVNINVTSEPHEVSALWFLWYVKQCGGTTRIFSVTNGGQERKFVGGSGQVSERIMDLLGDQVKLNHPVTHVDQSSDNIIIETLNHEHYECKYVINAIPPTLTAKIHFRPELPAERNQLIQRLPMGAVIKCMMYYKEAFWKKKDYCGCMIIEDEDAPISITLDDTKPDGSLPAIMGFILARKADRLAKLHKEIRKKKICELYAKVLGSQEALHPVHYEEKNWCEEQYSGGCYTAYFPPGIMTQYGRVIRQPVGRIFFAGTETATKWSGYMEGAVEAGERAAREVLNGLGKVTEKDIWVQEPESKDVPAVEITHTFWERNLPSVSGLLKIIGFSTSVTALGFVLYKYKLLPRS
In words: Activity on recombinant human MAO-A, method similar to the VAP-1 assay. To be noted: substrate 0.5 mM tyramine; read-out: Inhibitory Activity (IC50, nM) MAO-A. In a few lines: as §1

Assay [4] has as its target T4, recombinant human VAP-1 (Homo sapiens, UniProt Q16853).
T4 construct: purchased R&D systems
T4 sequence (Q16853 1-763): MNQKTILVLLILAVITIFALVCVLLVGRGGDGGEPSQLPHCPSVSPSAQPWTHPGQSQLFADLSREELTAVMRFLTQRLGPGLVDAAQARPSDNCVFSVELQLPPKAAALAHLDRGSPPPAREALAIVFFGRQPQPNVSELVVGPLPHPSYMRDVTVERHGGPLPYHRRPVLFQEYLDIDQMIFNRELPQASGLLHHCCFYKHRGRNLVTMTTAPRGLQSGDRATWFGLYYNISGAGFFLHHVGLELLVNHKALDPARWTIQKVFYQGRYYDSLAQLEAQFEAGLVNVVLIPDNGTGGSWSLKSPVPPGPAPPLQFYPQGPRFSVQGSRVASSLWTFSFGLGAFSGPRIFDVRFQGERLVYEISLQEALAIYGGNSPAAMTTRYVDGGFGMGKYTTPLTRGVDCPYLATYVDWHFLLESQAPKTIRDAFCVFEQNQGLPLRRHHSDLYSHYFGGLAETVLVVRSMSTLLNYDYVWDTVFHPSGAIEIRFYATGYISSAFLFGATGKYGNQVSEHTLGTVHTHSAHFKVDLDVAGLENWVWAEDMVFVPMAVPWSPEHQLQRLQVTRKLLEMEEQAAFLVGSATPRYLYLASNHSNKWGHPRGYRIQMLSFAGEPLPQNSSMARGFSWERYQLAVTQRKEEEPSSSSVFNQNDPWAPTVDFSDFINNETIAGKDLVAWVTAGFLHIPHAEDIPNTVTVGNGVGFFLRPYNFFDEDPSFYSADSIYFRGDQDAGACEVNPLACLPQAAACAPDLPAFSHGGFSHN
In words: Activity on recombinant human VAP-1, HRP-coupled Amplex Red hydrogen peroxide assay. To be noted: substrate 1 mM benzylamine; compound incubated with enzyme at 37° C. for 30 minutes; pH 7.4; read-out: Inhibitory Activity (IC50, nM) human VAP-1. In a few lines: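 Enzyme in 50 mM sodium phosphate pH 7.4 preincubated with compound 30 min at 37 °C, then 1 mM benzylamine, 200 µM Amplex Red and 1 U/mL HRP added. H2O2-derived resorufin fluorescence (ex 544/em 590 nm) followed over 1–2 h; signal-rate decrease versus DMSO control, 8-point curve, four-parameter logistic IC50.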

For orientation: IC50 means the point on the concentration scale where inhibition reaches its midpoint. As to `CN1CCC(n2cc(-c3ccc(Cn4cnn(C/C(=C/F)CN)c4=O)s3)cn2)CC1` [Example 159, 2-[(2E)-2-(aminomethyl)-3-fluoroprop-2-en-1-yl]-4-({5-[1-(1-methylpiperidin-4-yl)-1H-pyrazol-4-yl]thiophen-2-yl}methyl)-2,4-dihydro-3H-1,2,4-triazol-3-one], the half-maximal inhibitory concentration (IC50) in assay [1] was 1200 nM; in assay [2], greater than 100000 nM; in assay [3], greater than 100000 nM; in assay [4] it was 4.3 nM.

With `NC/C(=C\F)Cn1ncn(Cc2ccc(-c3ccc(OC(F)F)cc3)s2)c1=O` [Example 170, 2-[(2E)-2-(aminomethyl)-3-fluoroprop-2-en-1-yl]-4-({5-[4-(difluoromethoxy)phenyl]thiophen-2-yl}methyl)-2,4-dihydro-3H-1,2,4-triazol-3-one], the concentration for half-maximal inhibition (IC50) in assay [1] was 3100 nM; in assay [2] it was 190 nM; in assay [3], greater than 100000 nM; in assay [4] it was 3 nM.

Take `NC/C(=C\F)Cn1ncn(Cc2ccc(-c3ccc(C(F)(F)F)nc3)s2)c1=O` [Example 49, 2-[(2E)-2-(aminomethyl)-3-fluoroprop-2-en-1-yl]-4-(5-[6-(trifluoromethyl)pyridin-3-yl]thiophen-2-ylmethyl)-2,4-dihydro-3H-1,2,4-triazol-3-one hydrochloride]: the 50% inhibitory concentration (IC50) is 98 nM in assay [1], 360 nM in assay [2], greater than 100000 nM in assay [3] and 0.5 nM in assay [4].

For `Cn1cncc1C#Cc1ccc(Cn2cnn(C/C(=C/F)CN)c2=O)s1` [Example 130, 2-[(2E)-2-(aminomethyl)-3-fluoroprop-2-en-1-yl]-4-(5-[(1-methyl-1H-imidazol-5-yl)ethynyl]thiophen-2-ylmethyl)-2,4-dihydro-3H-1,2,4-triazol-3-one hydrochloride], the IC50 was 1500 nM in assay [1], 440 nM in assay [2], 57400 nM in assay [3] and 0.5 nM in assay [4].

On to `NC/C(=C\F)Cn1ncn(Cc2ccc(-c3ccc4c(c3)C(=O)NCC4)s2)c1=O` [Example 74, 7-[5-(1-[(2E)-2-(aminomethyl)-3-fluoroprop-2-en-1-yl]-5-oxo-1,5-dihydro-4H-1,2,4-triazol-4-ylmethyl)thiophen-2-yl]-3,4-dihydroisoquinolin-1(2H)-one hydrochloride], for which the half-inhibitory concentration (IC50) in assay [1] was 620 nM; in assay [2], greater than 10000 nM; in assay [3], greater than 100000 nM; in assay [4] it was 0.3 nM.

For the compound `CCn1cc(-c2ccc(Cn3cnn(C/C(=C/F)CN)c3=O)s2)ccc1=O` [Example 194, 5-[5-({1-[(2E)-2-(aminomethyl)-3-fluoroprop-2-en-1-yl]-5-oxo-1,5-dihydro-4H-1,2,4-triazol-4-yl}methyl)thiophen-2-yl]-1-ethylpyridin-2(1H)-one], the half-inhibitory concentration (IC50) in assay [1] is 1200 nM; in assay [2], 1500 nM; in assay [3], greater than 100000 nM; in assay [4], 1.6 nM.

As for `NC/C(=C\F)Cn1ncn(Cc2ccc(-c3ccncc3)s2)c1=O` [Example 160, 2-[(2E)-2-(aminomethyl)-3-fluoroprop-2-en-1-yl]-4-{[5-(pyridin-4-yl)thiophen-2-yl]methyl}-2,4-dihydro-3H-1,2,4-triazol-3-one], the IC50 was 1100 nM in assay [1], 51 nM in assay [2], greater than 100000 nM in assay [3] and 2.2 nM in assay [4].

Turning to `Cc1cc(-c2ccc(Cn3cnn(C/C(=C/F)CN)c3=O)s2)cc2c1OCC(=O)N2` [Example 91, 6-[5-(1-[(2E)-2-(aminomethyl)-3-fluoroprop-2-en-1-yl]-5-oxo-1,5-dihydro-4H-1,2,4-triazol-4-ylmethyl)thiophen-2-yl]-8-methyl-2H-1,4-benzoxazin-3(4H)-one hydrochloride], the IC50 was 340 nM in assay [1], 3200 nM in assay [2], greater than 10000 nM in assay [3] and 0.9 nM in assay [4].

Regarding `NC/C(=C\F)Cn1ncn(Cc2ccc(-c3ccc4c(c3)NCCO4)s2)c1=O` [Example 105, 2-[(E)-2-(aminomethyl)-3-fluoro-allyl]-4-[[5-(3,4-dihydro-2H-1,4-benzoxazin-6-yl)-2-thienyl]methyl]-1,2,4-triazol-3-one], the IC50 in assay [1] was 8500 nM; in assay [2], 420 nM; in assay [3] it was 38400 nM; in assay [4], 1.8 nM.

As for `NC/C(=C\F)Cn1ncn(Cc2ccc(-c3ccc(N)cc3)s2)c1=O` [Example 166, 2-[(2E)-2-(aminomethyl)-3-fluoroprop-2-en-1-yl]-4-{[5-(4-aminophenyl)thiophen-2-yl]methyl}-2,4-dihydro-3H-1,2,4-triazol-3-one], the half-maximal inhibitory concentration (IC50) in assay [1] was 14000 nM; in assay [2] it was 1300 nM; in assay [3], greater than 100000 nM; in assay [4] it was 7.7 nM.
